Structures can show the parent of a compound that is named as a salt.

By DC50 is commonly meant the concentration giving 50% degradation. Low values mean degradation at low concentration, high ones degradation only at high concentration. In general, Emax refers to the greatest response seen or fitted, relative to the assay's reference.

For the experiment, the target named is BRAF^V600E protein (Homo sapiens, UniProt P15056, V600E). The experiment in a line: HiBiT cellular BRAF V600E degradation assay. In kind it is cell-based. To be noted: 24 h incubation; for DC50: A375.10 cells (HiBiT tag knocked in at N-terminal of BRAF V600E), concentration at which 50% of total cellular BRAF V600E is degraded; for Emax: A375.10 cells, Emax = amount of residual protein remaining in the cell after compound treatment, read-out: HiBit 24 h Emax. On the technique in general: HiBiT is a short tag that completes a luciferase, so light tracks the accessible tagged protein.
Chain of BRAF^V600E protein (P15056 whole entry V600E): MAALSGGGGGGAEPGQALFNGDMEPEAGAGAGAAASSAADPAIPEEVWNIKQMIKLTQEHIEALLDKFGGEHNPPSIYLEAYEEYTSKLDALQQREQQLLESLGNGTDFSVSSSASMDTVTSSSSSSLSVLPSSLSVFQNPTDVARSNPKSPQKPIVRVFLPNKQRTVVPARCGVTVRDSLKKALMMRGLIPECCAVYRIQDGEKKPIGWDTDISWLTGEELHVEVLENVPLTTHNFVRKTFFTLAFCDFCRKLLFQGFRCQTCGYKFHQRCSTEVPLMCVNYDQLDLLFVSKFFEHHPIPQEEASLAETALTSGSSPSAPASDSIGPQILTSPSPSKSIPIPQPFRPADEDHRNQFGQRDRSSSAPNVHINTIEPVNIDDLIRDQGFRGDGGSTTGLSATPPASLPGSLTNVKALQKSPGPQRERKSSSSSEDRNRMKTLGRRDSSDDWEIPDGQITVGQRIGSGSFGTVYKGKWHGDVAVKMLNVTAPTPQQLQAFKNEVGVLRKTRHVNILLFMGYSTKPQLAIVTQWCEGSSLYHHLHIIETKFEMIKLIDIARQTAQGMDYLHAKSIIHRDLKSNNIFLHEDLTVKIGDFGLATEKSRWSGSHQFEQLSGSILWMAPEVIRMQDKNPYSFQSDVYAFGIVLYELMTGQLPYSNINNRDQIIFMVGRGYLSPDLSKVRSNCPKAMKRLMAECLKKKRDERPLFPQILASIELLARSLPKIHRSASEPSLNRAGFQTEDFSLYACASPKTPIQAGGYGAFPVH

As for `O=C1CCC(Oc2ccc(C3CCN(CC(=O)N4CC5(C4)CN(c4ccc(-c6cnc7[nH]cc(C(=O)c8c(F)ccc(NS(=O)(=O)N9CCCC9)c8F)c7c6)cc4)C5)CC3)cc2)C(=O)N1` (stereo not shown) [Example A116, N-[3-[5-[4-[2-[2-[4-[4-(2,6-Dioxopiperidin-3-yl)oxyphenyl]piperidin-1-yl]acetyl]-2,6-diazaspiro[3.3]heptan-6-yl]phenyl]-1H-pyrrolo[2,3-b]pyridine-3-carbonyl]-2,4-difluorophenyl]pyrrolidine-1-sulfonamide], it took 26 nM to reach half-maximal degradation (DC50) and the Emax was determined as 8%.

With `CCN(C)S(=O)(=O)Nc1ccc(F)c(C(=O)c2c[nH]c3ncc(-c4cnc(N5CCC(NCC(=O)N6CCC(c7ccc(NC8CCC(=O)NC8=O)cc7)CC6)CC5)nc4)cc23)c1F` (stereo not shown) [Example A100, 5-[2-[4-[[2-[4-[4-[(2,6-Dioxopiperidin-3-yl)amino]phenyl]piperidin-1-yl]-2-oxoethyl]amino]piperidin-1-yl]pyrimidin-5-yl]-3-[3-[[ethyl(methyl)sulfamoyl]amino]-2,6-difluorobenzoyl]-1H-pyrrolo[2,3-b]pyridine;hydrochloride], the DC50 was found to be 10 nM and the Emax is 11%.

In the case of `CCN(C)S(=O)(=O)Nc1ccc(F)c(C(=O)c2c[nH]c3ncc(-c4cnc(N5CCN(CCN6CCC(c7ccc(NC8CCC(=O)NC8=O)cc7)CC6=O)CC5)nc4)cc23)c1F` (stereo not shown) [Example 146, 5-[2-[4-[2-[4-[4-[(2,6-dioxo-3-piperidyl)amino]phenyl]-2-oxo-1-piperidyl]ethyl]piperazin-1-yl]pyrimidin-5-yl]-3-[3-[[ethyl(methyl)sulfamoyl]amino]-2,6-difluoro-benzoyl]-1H-pyrrolo[2,3-b]pyridine], it took 14.4 nM to reach half-maximal degradation (DC50) and the Emax was determined as 9.32%.

With `CCN(C)S(=O)(=O)Nc1cccc(C(=O)c2c[nH]c3ncc(-c4ccc(N5CCN(C(=O)CC6(O)CCN(c7ccc(C8CCC(=O)NC8=O)cc7F)CC6)CC5)nc4)cc23)c1F` (stereo not shown) [Example 159, 5-[6-[4-[2-[1-[4-(2,6-dioxo-3-piperidyl)-2-fluoro-phenyl]-4-hydroxy-4-piperidyl]acetyl]piperazin-1-yl]-3-pyridyl]-3-[3-[[ethyl(methyl)sulfamoyl]amino]-2-fluoro-benzoyl]-1H-pyrrolo[2,3-b]pyridine], the DC50 was 3.51 nM and the Emax stood at 6.33%.

For the compound `CCN(C)S(=O)(=O)Nc1cccc(C(=O)c2c[nH]c3ncc(-c4ccc(N5CCN(C(=O)CC6(O)CCN(c7ccc(NC8CCC(=O)NC8=O)cn7)CC6)CC5)cc4)cc23)c1F` (stereo not shown) [Example 117, 5-[4-[4-[2-[1-[5-[(2,6-dioxo-3-piperidyl)amino]-2-pyridyl]-4-hydroxy-4-piperidyl]acetyl]piperazin-1-yl]phenyl]-3-[3-[[ethyl(methyl)sulfamoyl]amino]-2-fluoro-benzoyl]-1H-pyrrolo[2,3-b]pyridine], the DC50 was 23.1 nM and the Emax is 25.3%.

`CCN(C)S(=O)(=O)Nc1cccc(C(=O)c2c[nH]c3ncc(-c4cnc(N5CCN(C(=O)CC6(O)CCN(c7ccc(NC8CCC(=O)NC8=O)cc7Cl)CC6)CC5)nc4)cc23)c1F` (stereo not shown) [Example 103, 5-[2-[4-[2-[1-[2-chloro-4-[(2,6-dioxo-3-piperidyl)amino]phenyl]-4-hydroxy-4-piperidyl]acetyl]piperazin-1-yl]pyrimidin-5-yl]-3-[3-[[ethyl(methyl)sulfamoyl]amino]-2-fluoro-benzoyl]-1H-pyrrolo[2,3-b]pyridine]: half-maximal degradation (DC50) was put at 3.04 nM and the Emax was 8.98%.

As to `CCN(C)S(=O)(=O)Nc1ccc(F)c(C(=O)c2c[nH]c3ncc(-c4ccc(N5CCN(C(=O)CC6(O)CCN(c7ccc(N[C@H]8CCC(=O)NC8=O)cc7F)CC6)CC5)nc4)cc23)c1F` [Example 176, 5-[6-[4-[2-[1-[4-[[(3S)-2,6-dioxo-3-piperidyl]amino]-2-fluoro-phenyl]-4-hydroxy-4-piperidyl]acetyl]piperazin-1-yl]-3-pyridyl]-3-[3-[[ethyl(methyl)sulfamoyl]amino]-2,6-difluoro-benzoyl]-1H-pyrrolo[2,3-b]pyridine], half-maximal degradation (DC50) was put at 5.84 nM and the Emax was found to be 9.54%.

With `CCN(C)S(=O)(=O)Nc1ccc(F)c(C(=O)c2c[nH]c3ncc(-c4cnc(N5CCN(C(=O)CN6CCC(c7ccc(NC89CC(C8)C(=O)NC9=O)cc7)CC6)CC5)nc4)cc23)c1F` [Example A87, 5-[2-[4-[2-[4-[4-[(2,4-Dioxo-3-azabicyclo[3.1.1]heptan-1-yl)amino]phenyl]piperidin-1-yl]acetyl]piperazin-1-yl]pyrimidin-5-yl]-3-[3-[[ethyl(methyl)sulfamoyl]amino]2,6-difluorobenzoyl]-1H-pyrrolo[2,3-b]pyridine; formic acid], the DC50 stood at 6 nM and the Emax amounted to 7%.

Take `CCN(C)S(=O)(=O)Nc1ccc(F)c(C(=O)c2c[nH]c3ncc(-c4ccc(N5CCN(C(=O)CN6CCN(c7ccc(NC8CCC(=O)NC8=O)cc7)CC6)CC5)nc4)cc23)c1F` (stereo not shown) [Example A11, 5-[6-[4-[2-[4-[4-[(2,6-Dioxopiperidin-3-yl)amino]phenyl]piperazin-1-yl]acetyl]piperazin-1-yl]pyridin-3-yl]-3-[3-[[ethyl(methyl)sulfamoyl]amino]-2,6-difluorobenzoyl]-1H-pyrrolo[2,3-b]pyridine]: the DC50 is 6.71 nM and the Emax came to 11.6%.

In the case of `CCN(C)S(=O)(=O)Nc1ccc(F)c(C(=O)c2c[nH]c3ncc(-c4cnc(N5CCC(C(=O)NC6CCN(c7ccc(NC8CCC(=O)NC8=O)cc7F)CC6)CC5)nc4)cc23)c1F` (stereo not shown) [Example 128, N-[1-[4-[(2,6-dioxo-3-piperidyl)amino]-2-fluoro-phenyl]-4-piperidyl]-1-[5-[3-[3-[[ethyl(methyl)sulfamoyl]amino]-2,6-difluoro-benzoyl]-1H-pyrrolo[2,3-b]pyridin-5-yl]pyrimidin-2-yl]piperidine-4-carboxamide], the DC50 was determined as 20.9 nM and the Emax stood at 14.6%.

`CCN(C)S(=O)(=O)Nc1ccc(F)c(C(=O)c2c[nH]c3ncc(-c4ccc(N5CCN(C(=O)CN6CCC(c7ccc(OC8CCC(=O)NC8=O)cc7)CC6)CC5)cc4)cc23)c1F` (stereo not shown) [Example A14, 5-[4-[4-[2-[4-[4-(2,6-Dioxopiperidin-3-yl)oxyphenyl]piperidin-1-yl]acetyl]piperazin-1-yl]phenyl]-3-[3-[[ethyl(methyl)sulfamoyl]amino]-2,6-difluorobenzoyl]-1H-pyrrolo[2,3-b]pyridine]: it took 10.6 nM to reach half-maximal degradation (DC50) and the Emax was determined as 9.74%.

For `CCN(C)S(=O)(=O)Nc1ccc(F)c(C(=O)c2c[nH]c3ncc(-c4ccc(N5CCN(C(=O)CC6(O)CCN(c7cc(Cl)c(N8CCC(=O)NC8=O)cc7F)CC6)CC5)nc4)cc23)c1F` [Example 219, 5-[6-[4-[2-[1-[5-chloro-4-(2,4-dioxohexahydropyrimidin-1-yl)-2-fluoro-phenyl]-4-hydroxy-4-piperidyl]acetyl]piperazin-1-yl]-3-pyridyl]-3-[3-[[ethyl(methyl)sulfamoyl]amino]-2,6-difluoro-benzoyl]-1H-pyrrolo[2,3-b]pyridine], the DC50 was found to be 1.65 nM and the Emax worked out at 6.11%.

For `CCN(C)S(=O)(=O)Nc1ccc(F)c(C(=O)c2c[nH]c3ncc(-c4ccc(N5CCC(NC(=O)CN6CCC(c7ccc(OC8CCC(=O)NC8=O)cn7)CC6)CC5)cc4)cc23)c1F` (stereo not shown) [Example A64, 2-[4-[5-(2,6-Dioxopiperidin-3-yl)oxypyridin-2-yl]piperidin-1-yl]-N-[1-[4-[3-[3-[[ethyl(methyl)sulfamoyl]amino]-2,6-difluorobenzoyl]-1H-pyrrolo[2,3-b]pyridin-5-yl]phenyl]piperidin-4-yl]acetamide;formic acid], the DC50 was determined as 67 nM and the Emax worked out at 13%.

`CCN(C)S(=O)(=O)Nc1ccc(F)c(C(=O)c2c[nH]c3ncc(-c4ccc(N5CCN(C(=O)CC6(O)CCN(c7ccc(NC8CCC(=O)NC8=O)cc7)CC6)CC5)cc4)cc23)c1F` (stereo not shown) [Example 86, 5-[4-[4-[2-[1-[4-[(2,6-dioxo-3-piperidyl)amino]phenyl]-4-hydroxy-4-piperidyl]acetyl]piperazin-1-yl]phenyl]-3-[3-[[ethyl(methyl)sulfamoyl]amino]-2,6-difluoro-benzoyl]-1H-pyrrolo[2,3-b]pyridine]: the DC50 is 4.29 nM and the Emax worked out at 11.8%.

For the compound `CCN(C)S(=O)(=O)Nc1cccc(C(=O)c2c[nH]c3ncc(-c4ccc(N5CCN(C(=O)CC6(O)CCN(c7ccc(NC8CCC(=O)NC8=O)cc7F)C6)CC5)nc4)cc23)c1F` (stereo not shown) [Example 114, 5-[6-[4-[2-[1-[4-[(2,6-dioxo-3-piperidyl)amino]-2-fluoro-phenyl]-3-hydroxy-pyrrolidin-3-yl]acetyl]piperazin-1-yl]-3-pyridyl]-3-[3-[[ethyl(methyl)sulfamoyl]amino]-2-fluoro-benzoyl]-1H-pyrrolo[2,3-b]pyridine], the DC50 stood at 2.29 nM and the Emax stood at 10.9%.

For the compound `CCN(C)S(=O)(=O)Nc1ccc(F)c(C(=O)c2c[nH]c3ncc(-c4cnc(N5CC6(CC(N7CCC(c8ccc(NC9CCC(=O)NC9=O)cc8)CC7)C6)C5)nc4)cc23)c1F` (stereo not shown) [Example 151, 5-[2-[6-[4-[4-[(2,6-dioxo-3-piperidyl)amino]phenyl]-1-piperidyl]-2-azaspiro[3.3]heptan-2-yl]pyrimidin-5-yl]-3-[3-[[ethyl(methyl)sulfamoyl]amino]-2,6-difluoro-benzoyl]-1H-pyrrolo[2,3-b]pyridine], the DC50 was 1.85 nM and the Emax was determined as 6.38%.

On to `CCN(C)S(=O)(=O)Nc1ccc(F)c(C(=O)c2c[nH]c3ncc(-c4cnc(N5CCC(CC(=O)N6CCC(c7ccc(NC8CCC(=O)NC8=O)cc7)CC6)CC5)nc4)cc23)c1F` (stereo not shown) [Example A112, 5-[2-[4-[2-[4-[4-[(2,6-Dioxopiperidin-3-yl)amino]phenyl]piperidin-1-yl]-2-oxoethyl]piperidin-1-yl]pyrimidin-5-yl]-3-[3-[[ethyl(methyl)sulfamoyl]amino]-2,6-difluorobenzoyl]-1H-pyrrolo[2,3-b]pyridine], for which it took 15 nM to reach half-maximal degradation (DC50) and the Emax is 15%.
